Earlier results on 1 compound are cited in patent publication US6777561B1, “Compounds” (AstraZeneca Canada Inc., priority 1998, dated 2004).

For data set [1] the following is noted: background statement on non-peptidic δ antagonists.
Data set [2] relates to δ receptor. The note with it: background statement on non-peptidic δ antagonists.

Consider `Oc1ccc2c3c1O[C@H]1c4[nH]c5ccccc5c4C[C@@]4(O)[C@@H](C2)N(CC2CC2)CC[C@]314` [naltrindole], for which the analgesic activity entry in data set [1] was “no analgesic activity”. Moreover, the “selectivity for the δ receptor vs. μ receptor binding” value in data set [2] is < 10 fold.
